Experimental data published in PMC12249509, “Quinazoline Derivative kzl052 Suppresses Prostate Cancer by Targeting WRN Helicase to Stabilize DNA Replication Forks” (International Journal of Molecular Sciences, 2025).

Experiments:
[1] = test system: normal human liver cells LX2; assay: MTT normal cytotoxicity, LX2; assay type: cell-based; details: mean ± SD, n = 3
Experimental: (§1) Cell suspensions were prepared in a logarithmic growth phase and seeded in 96-well plates at a density of 5000–8000 cells/well for 12 h and treated with different concentrations of kzl052 for 48 h. A 5 mg/mL MTT dye solution (Solarbio, Beijing, China) was added to all cells at 37 °C for 4 h. Then DMSO was added after removing the supernatant, and the crystals were completely dissolved by shaking at 37 °C for 15 min. The absorbance was measured at 490 nm by a microplate reader (Gene, HongKong, China). The cell proliferation inhibition rate was calculated according to the following formula: (1-experimental group OD/control group OD) × 100% with DMSO as a negative control and the WRN inhibitor (NSC 617145, GLPBIO, Montclair, CA, USA) as a positive control.

[2] = test system: normal human renal epithelial cells HK2; assay: MTT normal cytotoxicity, HK2; assay type: cell-based; details: Epithelial cell, mean ± SD, n = 3
Experimental: as §1

PC3 cells [3] = assay: Bright field and Hoechst staining, PC3; assay type: cell-based, human; details: 24 h
Experimental: (§2) PC3 and LNCaP cells were cultured and treated with different concentrations of kzl052 for 24 h and then 5 μg/mL of a Hoechst 33258 dye solution (Solarbio, Beijing, China) was added for 5–10 min after PBS washing. The fluorescence microscope (Leica, Wetzlar, Germany) was used for photo observation.

BALB/c mice = assay: Acute toxicity assay in BALB/c mice; assay type: in vivo; details: 24 h; for Death Number / Survival Number: 4 mice
Experimental: (§3) The toxicity of kzl052 in vivo was tested by an acute toxicity analysis in male BALB/c mice. A total of 20 mice were divided into 5 groups randomly. Each group was given a one-time treatment of kzl052 concentrations at 0 mg/kg, 50 mg/kg, 100 mg/kg, 200 mg/kg, and 500 mg/kg. The survival or death status of mice within 24 h was observed and recorded. The survival and death rate of mice were calculated.

[4] = Acute toxicity assay in BALB/c mice; assay type: in vivo; details: mouse, in vivo; within 24 h, male BALB/c mice, one-time treatment
Experimental: as §3

WRN-silenced PC3 cells = assay: MTT assay in WRN-silenced PC3 cells; assay type: cell-based, human; details: shWRN lentiviral transfection
Experimental: Human prostate cancer cell lines PC3 and LNCaP cells were stored in the Biology Laboratory of the Natural Products Research Center of Guizhou Province (Guiyang, China). Cells were cultured in DMEM supplemented with 10% fetal bovine serum (BI, Nahariya, Israel) and 1% penicillin and streptomycin (Solarbio, Beijing, China) and incubated at 37 °C under 5% CO2, 95% air, and 95% humidity. The pLV-shWRN-GFP-Puro and blank control plasmids were constructed by Chongqing UNIBIO Biotechnology Co., Ltd. (Chongqing, China). The transfection steps were based on previous published studies. The inhibitory effect of the WRN protein in PC3 cells was detected by a Western blot assay.
as §1, with “The cell proliferation inhibition rate was calculated according to the following formula: (1-experimental group OD/control group OD) × 100% with DMSO as a negative control and the WRN inhibitor (NSC 617145, GLPBIO, Montclair, CA, USA) as a positive control.” left out

[5] = test system: PARP1, Bax, PLK1, RB1, Bcl-2, SRC, PTEN, PCNA, RPA, FEN1, Mre11; assay: Western blot of apoptosis, RB signal and replication fork proteins; assay type: cell-based
Experimental: The cells treated by kzl052 were collected, washed by precooled PBS, and removed by centrifugation at 1000 g/5 min. A RIPA lysate (Solarbio, Beijing, China) was added for 30 min on ice. The protein concentration was determined by a BCA kit (Solarbio, Beijing, China) and denatured at 105 °C. The target proteins were isolated by SDS-PAGE gel electrophoresis and transferred to the PVDF membrane (Millipore, Bedford, MA, USA). A 5% BSA was added to block for 2 h. Primary antibodies (PNCA, RPA, FEN1, Mre11, PARP1, Bax, Bcl-2, PLK1, RB1, SRC, and PTEN; 1:1000 dilution, HUBIO, Hangzhou, China) were added and incubated at 4 °C overnight. The next day, the PVDF membrane with target proteins were washed by TBST and incubated with an HRP-labeled IgG secondary antibody (1:100,000 dilution, HUBIO, Hangzhou, China) for 2 h. After TBST washed, the target proteins were isolated and analyzed by a chemiluminescence instrument (BioRad, Hercules, CA, USA).

WRN protein [6] = assay: Western blot of WRN protein level; assay type: cell-based; details: 24 h
PC3 cells [7] = assay: MTT assay, PC3 cell growth; assay type: cell-based; details: Homo sapiens, PC-3, 24 h (Figure 1 legend), 48 h (method)
Experimental: as §1

PC3 cells [8] = assay: PC3 xenograft in BALB/c-null mice; assay type: in vivo; details: 5 mg/kg intraperitoneally
Experimental: Male BALB/c-null mice (4 weeks and 18–20 g) were purchased from SiPeiFu Biotechnology Co., Ltd. (Beijing, China). All SPF-grade mice were fed in the animal room with an IVC system barrier environment (Natural Products Research Center of Guizhou Province). The ambient temperature was maintained at 22 ± 2 °C, the humidity was 40–60%, and the light–dark cycle was maintained for 12 h to simulate the normal external environment. The mice took food and water autonomously. Xenografts were performed by subcutaneously implanting PC3 cells (1 × 10^7/0.1 mL). When the tumor size was 100 mm^3, the mice were randomly divided into 2 groups (N = 8). One group was intraperitoneally injected with kzl052 (5 mg/kg), and the other group was given the same dose of the solvent. The body weight and tumor volume was recorded every two days. The tumor volume (mm^3) = 0.5 × long diameter × short diameter^2. At the end of the experiment, the mice were euthanized and dissected to measure the weight of tumor tissue, heart, liver, spleen, kidney, and lung.
The tumor tissue sections were placed sequentially in xylene I/10 min; xylene II/10 min; absolute ethanol I/5 min; absolute ethanol II/5 min; 95% ethanol/5 min; 90% ethanol/5 min; 80% ethanol/5 min; and 70% ethanol/5 min. Then the sections were treated in a hematoxylin staining solution (Solarbio, Beijing, China) for 3–5 min. The slices were treated by 1% hydrochloric acid alcohol for 5–10 s. The sections were treated in an eosin staining solution (Solarbio, Beijing, China) for 1–3 min. Next, the slices were dehydrated with 95% ethanol/5 min; anhydrous ethanol I/5 min; anhydrous ethanol/5 min; xylene I/5 min; and xylene II/5 min. Finally, the sections were sealed with a neutral gum (Solarbio, Beijing, China). The H&E staining results were photographed and analyzed under light microscopes (Leica, Wetzlar, Germany).
The tissue sections were roasted, dewaxed, hydrated, antigen repaired, blocked, and incubated with a polyclonal antibody (PNCA, RPA, Mre11, PARP1, and RB1 at a 1:50 dilution, HUBIO, and γ-H2A.X at a 1:50 dilution, CST) at 4 °C overnight. The HRP-labeled IgG secondary antibody (1:1000 dilution, HUBIO, Hangzhou, China) was incubated at 37 °C for 2 h, stained with DAB, and then stained with hematoxylin (Solarbio, Beijing, China) and sealed with a neutral rubber (Solarbio, Beijing, China). It was also observed and photographed under a microscope (Leica, Wetzlar, Germany). The immunohistochemical results were statistically analyzed using image Pro plus (V6.0) software.

PC3 cells [9] = assay: γ-H2A.X immunofluorescence (DNA damage), PC3; assay type: cell-based, human; details: 100 nM, 24 h
Experimental: (§4) Cell slides were prepared and treated with 100nM kzl052 for 24 h. A 4% PFA was added for fixation after PBS washing, and then the cells were treated with Triton X-100 (Sigma-Aldrich, Saint Louis, MO, USA) for 30 min. The cells were blocked with 4% BSA for 2 h and incubated overnight at 4 °C with a γ-H2A.X primary antibody (1:1000, CST, Boston, MA, USA). A fluorescent secondary antibody (1:50; CST) was added and incubated in the dark for 2 h. After washing with PBS, a 10 μg/mL DAPI staining solution was added and treated the cells for 5–10 min. The expression and localization of γ-H2A.X was detected by inverted fluorescence microscopy (Leica, Wetzlar, Germany).

LNCaP cells [10] = assay: γ-H2A.X immunofluorescence (DNA damage), LNCaP; assay type: cell-based, human; details: 100 nM, 24 h
Experimental: as §4

LNCaP cells [11] = assay: MTT assay, LNCaP cell growth; assay type: cell-based; details: Homo sapiens, 24 h (Figure 1 legend), 48 h (method)
Experimental: as §1

WRN protein [12] = molecular target: T1, WRN protein (Homo sapiens, UniProt Q14191); assay: Cellular thermal shift assay (CETSA); assay type: binding; details: PC3 cells, 100 nM, 2 h
T1 construct: endogenous in cells; host or cells: PC3
T1 sequence (Q14191 whole entry): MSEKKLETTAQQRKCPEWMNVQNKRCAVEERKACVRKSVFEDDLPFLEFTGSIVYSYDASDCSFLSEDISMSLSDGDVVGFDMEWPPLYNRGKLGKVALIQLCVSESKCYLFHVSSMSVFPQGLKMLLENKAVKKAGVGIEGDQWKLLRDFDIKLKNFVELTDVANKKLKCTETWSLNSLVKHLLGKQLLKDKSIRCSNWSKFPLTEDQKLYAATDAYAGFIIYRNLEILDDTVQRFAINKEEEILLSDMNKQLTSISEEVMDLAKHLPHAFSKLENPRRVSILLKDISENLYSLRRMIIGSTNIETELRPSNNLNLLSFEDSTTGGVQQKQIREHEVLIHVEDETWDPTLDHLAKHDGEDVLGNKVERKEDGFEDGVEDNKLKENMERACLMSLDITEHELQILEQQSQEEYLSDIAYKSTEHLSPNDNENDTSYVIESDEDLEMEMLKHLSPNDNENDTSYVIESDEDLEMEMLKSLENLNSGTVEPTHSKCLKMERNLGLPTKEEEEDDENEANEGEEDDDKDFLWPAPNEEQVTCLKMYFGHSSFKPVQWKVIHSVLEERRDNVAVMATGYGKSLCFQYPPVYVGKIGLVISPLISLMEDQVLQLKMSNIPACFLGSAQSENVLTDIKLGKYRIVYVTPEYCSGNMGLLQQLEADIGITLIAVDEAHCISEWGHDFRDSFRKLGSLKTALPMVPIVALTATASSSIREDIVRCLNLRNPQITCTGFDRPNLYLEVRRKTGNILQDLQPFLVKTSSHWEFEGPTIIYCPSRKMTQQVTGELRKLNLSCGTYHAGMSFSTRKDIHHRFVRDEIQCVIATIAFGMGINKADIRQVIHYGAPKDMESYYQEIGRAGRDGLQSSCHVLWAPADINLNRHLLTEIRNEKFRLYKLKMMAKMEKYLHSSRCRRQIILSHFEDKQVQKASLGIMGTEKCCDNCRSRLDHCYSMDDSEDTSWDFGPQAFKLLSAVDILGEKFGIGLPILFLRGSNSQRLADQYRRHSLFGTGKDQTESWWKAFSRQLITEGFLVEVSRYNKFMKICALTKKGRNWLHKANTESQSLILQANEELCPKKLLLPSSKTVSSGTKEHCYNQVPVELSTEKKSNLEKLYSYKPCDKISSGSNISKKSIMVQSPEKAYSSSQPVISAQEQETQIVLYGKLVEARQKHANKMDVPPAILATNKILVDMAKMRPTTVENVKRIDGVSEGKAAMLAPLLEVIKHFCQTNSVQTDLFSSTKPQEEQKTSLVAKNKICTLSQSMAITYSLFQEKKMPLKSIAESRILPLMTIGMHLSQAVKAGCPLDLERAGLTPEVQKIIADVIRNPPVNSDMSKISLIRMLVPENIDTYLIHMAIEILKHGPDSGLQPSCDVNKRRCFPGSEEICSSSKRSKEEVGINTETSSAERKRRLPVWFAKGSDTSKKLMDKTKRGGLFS
Experimental: PC3 cells were cultured and treated with 100 nM kzl052 for 2 h. The cells were collected into 1.5 mL EP tubes, treated with a metal bath at different temperatures (43 °C, 46 °C, 49 °C, 52 °C, and 55 °C) for 3 min, and balanced for 2 min at room temperature. The supernatant was collected by centrifugation after three cycles of liquid nitrogen in a 37 °C water bath, and then a SDS-loading buffer and denatured protein was added at 100 °C for 10 min. Finally, the content of the binding of the WRN protein was detected by Western blot.

WRN helicase = molecular target: T2, WRN helicase (Homo sapiens, UniProt Q14191); assay: WRN-unwinding assay (WRN enzyme activity test); assay type: biochemical; details: Figure S2
T2 construct: ICE Bioscience Inc (Beijing, China)
T2 sequence (Q14191 whole entry): as above
Experimental: NSC617145 in WRN FI as s ay KZL -05 2 in WR N FI as s ay
Figure S2.The results of WRN-unwinding assay. WRN enzyme activity test were
performed by ICE Bioscience Inc (Beijing, China).

LNCaP cells [13] = assay: Bright field and Hoechst staining, LNCaP; assay type: cell-based, human; details: 24 h
Experimental: as §2

## CC(=O)O[C@@]12CO[C@@H]1C[C@H](O)[C@@]1(C)C(=O)[C@H](O)C3=C(C)[C@@H](OC(=O)[C@H](O)[C@@H](NC(=O)OC(C)(C)C)c4ccccc4)C[C@@](O)([C@@H](OC(=O)c4ccccc4)[C@H]21)C3(C)C [Docetaxel, reference compound]
[1]
  IC50: 410 ± 110 nM
[2]
  IC50: 110 ± 10 nM

## CC(C)(CN1C(=O)C(Cl)=C(Cl)C1=O)CN1C(=O)C(Cl)=C(Cl)C1=O [NSC 617145]
[1]
  IC50: 1810 ± 270 nM

## Cc1ccc2nc(C(F)(F)F)nc(N(C)c3ccc(OC(F)F)cc3)c2c1 [kzl052]
PC3 cells [3]
  cell death, PC3: promoted PC3 and LNCaP cell death
BALB/c mice; 50 mg/kg
  Mortality Rate: 0%
  Survival Rate: 100%
  Death Number: 0
  Survival Number: 4
BALB/c mice; 100 mg/kg
  Mortality Rate: 0%
  Survival Rate: 100%
  Death Number: 0
  Survival Number: 4
BALB/c mice; 200 mg/kg
  Mortality Rate: 0%
  Survival Rate: 100%
  Death Number: 0
  Survival Number: 4
BALB/c mice; 500 mg/kg
  Mortality Rate: 75%
  Survival Rate: 25%
  Death Number: 3
  Survival Number: 1
[4]
  LD50 at 24 h: 200 to 500 mg/kg
WRN-silenced PC3 cells
  sensitivity of WRN-silenced PC3 cells: more insensitive
[5]
  expression of PARP1, Bax, PLK1, and RB1: significantly up-regulated
  expression of PCNA, RPA, and FEN1: significantly inhibited
  protein level of Mre11: up-regulated
  protein levels of Bcl-2, SRC, and PTEN: inhibited
WRN protein [6]
  WRN protein expression: significantly inhibited
PC3 cells [7]
  IC50: 390 ± 10 nM
PC3 cells [8]
  H&E staining compared with the control group: no significant difference
  effects on mouse body weight and internal organ morphology: minimal effects
PC3 cells [8]; PC3 xenograft
  growth of PC3 cells in vivo (tumor volume, tumor quality): significantly inhibited
PC3 cells [8]; γ-H2A.X, PARP1, RB1, PCNA, RPA, Mre11
  DNA replication fork complexes in tumor tissues (immunohistochemistry): promoted the instability of DNA replication fork complexes
[1]
  IC50: 3120 ± 90 nM
PC3 cells [9]
  γ-H2A.X staining, PC3: significantly increased
[2]
  IC50: 920 ± 240 nM
LNCaP cells [10]
  γ-H2A.X staining, LNCaP: significantly increased
LNCaP cells [11]
  IC50: 110 ± 10 nM
WRN protein [12]
  binding to WRN protein (CETSA): bound to the WRN protein
WRN helicase
  effect on activity of WRN helicase: did not affect the activity of WRN helicase
LNCaP cells [13]
  cell death, LNCaP: promoted PC3 and LNCaP cell death
